Test results as given in US9314468B2, “Chemokine receptor modulators” (Altiris Therapeutics, Inc., priority 2008, dated 2016).

These molecules were tested against CXCR4 (Homo sapiens (Human), UniProt P61073) (assay: Functional calcium mobilization assay (SDF-1α induced)). Settings: CCRF-CEM, read-out: % inhibition at 1 μM.
Format: cell-based
Method: Functional modulation of CXCR4 was determined by calcium mobilization assay using leukemic lymphoid CEM cells, which naturally express high levels of CXCR4. Generally, the assay is carried out as follows: Cells are grown in vitro to confluency. On the day of the assay, cells are removed from the incubator, culture medium removed and replaced with a calcium sensitive dye (Calcium3 assay kit; Molecular Devices, Sunnyvale, Calif.). The cells are allowed to dye load for 45-60 min at 37° C. in the cell culture incubator and then allowed to equilibrate to room temperature for no more than 15 min before assay.
Compound plates were generated containing up to 3% dimethyl sulfoxide in media kept at room temperature. Test compounds were added to the cells at a 1:3 dilution, and calcium mobilization was measured using a Flex Station fluorescence imager (Molecular Devices). This first read was used to determine direct agonist activation of the CXCR4 receptor by the test compounds. […] Full dose response curves were generated daily for SDF-1a to calculate IC50 concentrations. The IC50 values are reported. In cases, where one was not determined, a percent inhibition at the 1 μM concentration was extrapolated.
Functional calcium mobilization assay was conducted as described in Example 27.

CXCR4, sequence (P61073 whole entry): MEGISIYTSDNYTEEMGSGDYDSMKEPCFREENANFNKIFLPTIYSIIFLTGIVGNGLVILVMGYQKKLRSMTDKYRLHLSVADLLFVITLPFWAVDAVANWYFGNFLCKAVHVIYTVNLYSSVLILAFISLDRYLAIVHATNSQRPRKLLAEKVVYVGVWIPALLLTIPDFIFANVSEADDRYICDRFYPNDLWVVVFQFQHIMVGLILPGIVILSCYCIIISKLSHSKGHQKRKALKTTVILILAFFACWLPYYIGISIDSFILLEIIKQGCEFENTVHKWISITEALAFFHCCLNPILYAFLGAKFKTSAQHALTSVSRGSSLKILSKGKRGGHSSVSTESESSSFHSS

inhibition at 1 µM [%]	SMILES
0	c1cnc2c(c1)CCC[C@@H]2NCc1nccc2c1[nH]c1ccccc12
49	c1cnc2c(c1)CCCC2N(CCCCN1CCOCC1)Cc1nccc2c1[nH]c1ccccc12 (centres unmarked)
0	NCc1ccc(CN(Cc2nccc3c4ccccc4n(CC(=O)N4CCOCC4)c23)[C@H]2CCCc3cccnc32)cc1
0	CC(C)CN(Cc1nccc2c3ccccc3n(CCCN)c12)[C@H]1CCCc2cccnc21
45	NCCCCN(Cc1cn(Cc2ccccc2)nn1)C1CCCc2cccnc21 (centres unmarked)
0	CCNC(=O)NCCCCN(Cc1nccc2c1[nH]c1ccccc12)[C@H]1CCCc2cccnc21
0	c1cnc2c(c1)CCC[C@@H]2N(Cc1ccc(N2CCNCC2)cc1)Cc1nccc2c1[nH]c1ccccc12
32	CN(Cc1nccc2c3ccccc3n(CCCCN3C(=O)c4ccccc4C3=O)c12)[C@H]1CCCc2cccnc21
27	c1ccc(CN(CCCCN(Cc2nccc3c2[nH]c2ccccc23)C2CCCc3cccnc32)Cc2ccccn2)nc1 (centres unmarked)

Same assay, conditions: CEM cells, SDF-1α challenge at EC80-EC90; read-out: Ca Flux IC50

SMILES	IC50 [nM]
c1cnc2c(c1)CCCC2N(CCCCNC1=NCCN1)Cc1nccc2c1[nH]c1ccccc12 (centres unmarked)	1670
CN(Cc1nccc2c3ccccc3n(CCN)c12)[C@H]1CCCc2cccnc21	142
CC(C)(C)C(=O)N1CCN(CCCN(Cc2nccc3c2[nH]c2ccccc23)C2CCCc3cccnc32)CC1 (centres unmarked)	1930
NCCCCN(Cc1nccc2c3ccccc3n(CC(=O)N3CCCCC3)c12)[C@H]1CCCc2cccnc21	270
O=C(Cn1c2ccccc2c2ccnc(CN(CCCN3CCNCC3)[C@H]3CCCc4cccnc43)c21)N1CCCCC1	405
NCCCCN(Cc1nccc2c1[nH]c1ccccc12)C1CCCc2cccnc21 (centres unmarked) [drawing 654]	142
O=C(Cn1c2ccccc2c2ccnc(CN(CCCCNCc3ccccn3)[C@H]3CCCc4cccnc43)c21)N1CCOCC1	8650
CC(C)(C)OC(=O)Cn1c2ccccc2c2ccnc(CN[C@H]3CCCc4cccnc43)c21	2810
CN(Cc1nccc2c3ccccc3n(CCCN3C(=O)c4ccccc4C3=O)c12)[C@H]1CCCc2cccnc21	217

The next lines start with the values.

IC50 [nM]	SMILES
30	NCCCCN(Cc1nccc2c1[nH]c1ccccc12)[C@H]1CCCc2cccnc21
44	O=C1c2ccccc2C(=O)N1CCCn1c2ccccc2c2ccnc(CN(CCCN3CCNCC3)[C@H]3CCCc4cccnc43)c21
87	c1cnc2c(c1)CCC[C@@H]2N(CCCN1CCNCC1)Cc1nccc2c1[nH]c1ccccc12
4	NCCCCN(Cc1nccc2c3ccccc3n(CCCN3CCNC(=O)C3)c12)[C@H]1CCCc2cccnc21
9	NC(=O)Cn1c2ccccc2c2ccnc(CN(CCCN3CCNCC3)[C@H]3CCCc4cccnc43)c21
24	c1cnc2c(c1)CCC[C@@H]2N(CCCN1CCNCC1)Cc1nccc2c3ccccc3n(CCN3CCOCC3)c12
123	C[C@@H]1CN(C(=O)Cn2c3ccccc3c3ccnc(CN(CCCCN)[C@H]4CCCc5cccnc54)c32)C[C@H](C)O1 [drawing 744]
59	CC(C)(C)OC(=O)Cn1c2ccccc2c2ccnc(CN(CCCN3CCNCC3)[C@H]3CCCc4cccnc43)c21 [drawing 743]
9	C#CCn1c2ccccc2c2ccnc(CN(CCCCN)[C@H]3CCCc4cccnc43)c21
135	O=C(O)Cn1c2ccccc2c2ccnc(CN(CCCN3CCNCC3)[C@H]3CCCc4cccnc43)c21 [drawing 753]
30	NCCCn1c2ccccc2c2ccnc(CN(CCCN3CCNC(=O)C3)[C@H]3CCCc4cccnc43)c21
22	Cn1c2ccccc2c2ccnc(CN(CCCCN)[C@H]3CCCc4cccnc43)c21
57	Cn1c2ccccc2c2cc(CN(CCCCN)[C@H]3CCCc4cccnc43)ncc21
100	NCCCCN(Cc1cc2c(cn1)[nH]c1ccccc12)[C@H]1CCCc2cccnc21
69	NCCCCN(Cc1cc2c(cn1)[nH]c1ccccc12)C1CCCc2cccnc21 (centres unmarked)
5	NCCCn1c2ccccc2c2ccnc(CN(CCCN3CCNCC3)[C@H]3CCCc4cccnc43)c21
49	COCCn1c2ccccc2c2ccnc(CN(CCCN3CCNCC3)[C@H]3CCCc4cccnc43)c21
